Data on 42 compounds can be found in patent US9150568B2, “Compositions and methods for modulating FXR” (NOVARTIS AG, priority 2010, dated 2015).

The target of this test is T1, human Farnesoid X Receptor (FXR) ligand binding domain (GST-FXR LBD) (Homo sapiens, UniProt Q96RI1).
T1 construct: purchased Invitrogen
T1 sequence (Q96RI1 193-472 isoform Q96RI1-2): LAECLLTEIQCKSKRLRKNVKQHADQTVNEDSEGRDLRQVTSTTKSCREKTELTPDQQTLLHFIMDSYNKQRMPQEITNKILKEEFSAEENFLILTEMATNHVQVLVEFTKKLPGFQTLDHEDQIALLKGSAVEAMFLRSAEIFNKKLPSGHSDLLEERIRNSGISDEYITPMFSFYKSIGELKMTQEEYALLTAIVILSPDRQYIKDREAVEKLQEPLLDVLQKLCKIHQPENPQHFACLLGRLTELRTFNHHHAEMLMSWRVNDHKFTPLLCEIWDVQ
In words: Human GST-FXR LBD co-activator interaction assay (HTRF). Type of test: biochemical. The note with it: GST-FXR LBD / biotin-SRC-1 peptide FRET; response relative to GW4064; read-out: FXR Co-activator interaction assay (EC50). From the text:
Human GST-FXR LBD Co-activator interaction Assay. The FXR HTRF assay is a biochemical assay measuring the interaction between FXR and a coactivator protein (SRC1). The ligand-induced interaction with a coactivator protein is a critical step in transcriptional activation by FXR. Thus, this is an assay designed to measure FXR agonist activity of compounds.
The ligand-dependent interaction between GST-FXR LBD and a peptide derived from Steroid Receptor Coactivator-1 (SRC-1) was monitored by Fluorescence Resonance Energy Transfer (FRET). […] Test compounds (in DMSO solution) and detection reagents (anti-GST-Cryptate labeled antibody and Streptavidin-XL665 conjugate; CisBio) were added in assay buffer containing 50 mM KF.
A negative control (without Streptavidin-XL665) was run with each assay and represented the background fluorescence. A reference FXR agonist, GW4064, was included in each experiment as positive control. The efficacy of each test compound was compared to that of GW4064. At each concentration, the relative activity of the test compound was expressed as Response %=(Rsample−RDMSO)/(Rpositive−RDMSO), where Rsample is the HTRF response (expressed in Delta F %) for the test compound, Rpositive is the maximal response for GW4064 at saturating concentrations, and RDMSO is the response for DMSO control. The EC50 values were calculated using GraphPad Prism (GraphPad Software) using non-linear regression curve fit (log(agonist) vs. response—variable slope (four parameters)).
On to `COC(=O)c1ccc(N2C3CC[C@H]2CC(OCc2c(-c4ccccc4OC(F)(F)F)noc2C2CC2)C3)c(F)c1` (stereo in doubt) [Example 23A, Methyl 4-(3-((5-cyclopropyl-3-(2-(trifluoromethoxy)phenyl)isoxazol-4-yl)methoxy)-8-azabicyclo[3.2.1]octan-8-yl)-3-fluorobenzoate], for which the EC50 was 6 nM.

`Cc1cccc(C)c1-c1noc(C2CC2)c1COC1CC2CC[C@@H](C1)N2c1ccc(C(=O)O)c(C)n1` (stereo partly drawn) [Example 30-49]: the EC50 came out at 140 nM.

As to `O=C(O)c1ccc(N2[C@@H]3CC[C@H]2C[C@@H](OCc2c(-c4ccccc4C4CC4)noc2C2CC2)C3)nc1` [Example 30-24], the EC50 was found to be 4 nM.

`COC(=O)c1cnc(N2C3CC[C@H]2CC(OCc2c(-c4ccccc4OC(F)F)noc2C2CC2)C3)cn1` (stereo partly drawn) [Example 22-11A]: the EC50 was found to be 110 nM.

Consider `COC(=O)c1cc(Cl)nc(N2C3CC[C@H]2CC(OCc2c(-c4c(F)cccc4F)noc2C2CC2)C3)n1` (stereo partly drawn) [Example 22-20], for which the EC50 stood at 25 nM.

As to `O=C(O)c1cnc(N2C3CC[C@H]2C[C@H](OCc2c(-c4ccccc4OC(F)(F)F)noc2C2CC2)C3)cc1C(F)(F)F` [Example 19-3B], the EC50 came to 10 nM.

On to `O=C(O)c1ccc(N2C3CC[C@H]2CC(OCc2c(-c4ccccc4C(F)(F)F)noc2C2CC2)C3)c(F)c1` (stereo partly drawn) [Example 25-5B], for which the EC50 came out at 1 nM.

Take `O=C(O)c1ccc2nc(N3C4CC[C@H]3C[C@H](OCc3c(C5CCC6(CC5)CC6)noc3C3CC3)C4)sc2c1` [Example 13-1B]: the EC50 was determined as 1.3 nM.

`Cc1cc(N2C3CC[C@H]2CC(OCc2c(-c4c(F)cccc4F)noc2C2CC2)C3)ncc1C(=O)O` (stereo partly drawn) [Example 30-26]: the EC50 was determined as 7 nM.

Regarding `CC1(C)CCC(c2noc(C3CC3)c2CO[C@@H]2CC3CC[C@@H](C2)N3c2nc3c(F)cc(C(=O)O)cc3s2)CC1` [Example 8-4], the EC50 is 8.9 nM.

With `O=C(O)c1cnc2ccc(N3C4CC[C@H]3CC(OCc3c(-c5ccccc5OC(F)(F)F)noc3C3CC3)C4)cn12` (stereo partly drawn) [Example 28-2], the EC50 is 16 nM.

Turning to `O=C(O)c1cnn2ccc(N3[C@@H]4CC[C@H]3C[C@@H](OCc3c(-c5ccccc5OC(F)(F)F)noc3C3CC3)C4)cc12` [Example 32-2], the 50% effective concentration (EC50) stood at 4 nM.

As for `O=C(O)c1cnn2ccc(N3C4CC[C@H]3CC(OCc3c(-c5ccccc5OC(F)(F)F)noc3C3CC3)C4)nc12` (stereo partly drawn) [Example 30-59], the EC50 worked out at 92 nM.

On to `COC(=O)c1cnc(N2C3CC[C@H]2CC(OCc2c(-c4ccccc4C(F)(F)F)noc2C2CC2)C3)nc1` (stereo partly drawn) [Example 21-2A], for which the EC50 is 120 nM.

Take `O=C(O)c1cnc(N2C3CC[C@H]2CC(OCc2c(-c4ccccc4OC(F)F)noc2C2CC2)C3)cn1` (stereo partly drawn) [Example 22-11B]: the EC50 came to 10 nM.

Consider `O=C(O)c1cnc(N2C3CC[C@H]2CC(OCc2c(-c4ccccc4C(F)(F)F)noc2C2CC2)C3)cn1` (stereo partly drawn) [Example 21-3B], for which the EC50 came to 9 nM.

`O=C(O)CNC(=O)c1cc(F)c2nc(N3C4CC[C@H]3C[C@H](OCc3c(-c5ccccc5C(F)(F)F)noc3C3CC3)C4)sc2c1` [Example 15-4]: the EC50 worked out at 0.8 nM.

For the compound `O=C(O)c1cc(F)c(N2C3CC[C@H]2CC(OCc2c(-c4ccccc4C(F)(F)F)noc2C2CC2)C3)c(F)c1` (stereo partly drawn) [Example 25-2B], the concentration giving a half-maximal response (EC50) was determined as 5 nM.

`O=C(O)c1nsc2cc(N3C4CC[C@H]3CC(OCc3c(-c5ccccc5C(F)(F)F)noc3C3CC3)C4)ccc12` (stereo partly drawn) [Example 28-21]: the EC50 amounted to 2.2 nM.

On to `Cc1ccccc1-c1noc(C2CC2)c1CO[C@H]1C[C@H]2CC[C@@H](C1)N2c1nc2ccc(C(=O)O)cc2s1` [Example 30-4], for which the EC50 turned out to be 0.7 nM.

`O=C(O)c1cnc(N2[C@@H]3CC[C@H]2C[C@@H](OCc2c(-c4c(F)cccc4F)noc2C2CC2)C3)c(C2CC2)c1` [Example 22-17B]: the half-maximal effective concentration (EC50) worked out at 3 nM.

For the compound `O=C(O)c1cnc(N2C3CC[C@H]2CC(OCc2c(-c4ccccc4C(F)(F)F)noc2C2CC2)C3)cc1C(F)(F)F` (stereo partly drawn) [Example 21-4B], the EC50 is 20 nM.

With `COC(=O)c1cnc(N2C3CC[C@H]2CC(OCc2c(-c4c(F)cccc4F)noc2C2CC2)C3)nc1` (stereo partly drawn) [Example 22-14A], the EC50 is 70 nM.

For the compound `O=C(O)c1ccc2nc(N3C4CC[C@H]3C[C@H](OCc3c(-c5ccccc5OC(F)F)noc3C3CC3)C4)sc2c1` [Example 6-2B], the EC50 was determined as 0.36 nM.

As to `O=C(O)c1cn2nc(N3C4CC[C@H]3CC(OCc3c(-c5ccccc5C(F)(F)F)noc3C3CC3)C4)ccc2n1` (stereo partly drawn) [Example 31-2], the EC50 stood at 13 nM.

With `O=C(O)c1cc(F)c2nc(N3C4CC[C@H]3C[C@H](OCc3c(C5CC5)noc3C3CC3)C4)sc2c1` [Example 12-2], the EC50 worked out at 40 nM.

On to `O=C(O)c1cc(C2CC2)nc(N2C3CC[C@H]2CC(OCc2c(-c4ccccc4OC(F)(F)F)noc2C2CC2)C3)n1` (stereo partly drawn) [Example 30-42], for which the EC50 was 3 nM.

On to `O=C(O)c1ccc(N2C3CC[C@H]2CC(OCc2c(-c4ccccc4OC(F)(F)F)noc2C2CC2)C3)cc1` (stereo partly drawn) [Example 28-6], for which the EC50 turned out to be 1.7 nM.

`Cc1cccc(F)c1-c1noc(C2CC2)c1COC1CC2CC[C@@H](C1)N2c1ccc(C(=O)O)cn1` (stereo partly drawn) [Example 30-12]: the EC50 was found to be 5 nM.

Consider `O=C(O)c1cc(F)c2nc(N3[C@@H]4CC[C@H]3C[C@@H](OCc3c(C5CCCC5)noc3C3CC3)C4)sc2c1` [Example 29-3], for which the EC50 worked out at 11 nM.

As to `Cc1cc(C(=O)O)nc(N2C3CC[C@H]2CC(OCc2c(-c4ccccc4C)noc2C2CC2)C3)n1` (stereo partly drawn) [Example 30-3], the concentration for a half-maximal effect (EC50) was 15 nM.

With `O=C(O)c1ccc(N2C3CC[C@H]2CC(OCc2c(-c4c(F)cccc4F)noc2C2CC2)C3)c(F)c1` (stereo partly drawn) [Example 25-3B], the EC50 amounted to 0.9 nM.

On to `COC(=O)c1cnc(N2C3CC[C@H]2CC(OCc2c(-c4ccccc4C(F)(F)F)noc2C2CC2)C3)cc1C(F)(F)F` (stereo partly drawn) [Example 21-4A], for which the EC50 worked out at 250 nM.

Take `O=C(O)c1cc(C2CC2)nc(N2C3CC[C@H]2CC(OCc2c(-c4ccccc4OC(F)F)noc2C2CC2)C3)n1` (stereo partly drawn) [Example 30-41]: the EC50 turned out to be 4 nM.

As to `O=C(O)CNC(=O)c1ccc(N2C3CC[C@H]2C[C@H](OCc2c(-c4ccccc4OC(F)(F)F)noc2C2CC2)C3)nc1` [Example 15-3], the EC50 came out at 17 nM.

On to `O=C(O)c1cccc(N2[C@@H]3CC[C@H]2C[C@@H](OCc2c(-c4ccccc4OC(F)F)noc2C2CC2)C3)n1` [Example 30-27], for which the EC50 was 7 nM.

`COc1cc(C(=O)O)cc2sc(N3C4CC[C@H]3CC(OCc3c(-c5c(C)cccc5C)noc3C3CC3)C4)nc12` (stereo partly drawn) [Example 30-14]: the EC50 is 1.2 nM.

Turning to `Cc1cc(C(=O)O)nc(N2C3CC[C@H]2C[C@H](OCc2c(C4CCC5(CC4)CC5)noc2C2CC2)C3)n1` [Example 14], the EC50 was 35 nM.

`Cc1cccc(F)c1-c1noc(C2CC2)c1CO[C@H]1C[C@H]2CC[C@@H](C1)N2c1ccc(C(=O)O)c(C)n1` [Example 30-51]: the EC50 turned out to be 52 nM.

Regarding `CC1CC1c1noc(C2CC2)c1CO[C@@H]1CC2CC[C@@H](C1)N2c1nc2c(F)cc(C(=O)O)cc2s1` (stereo partly drawn) [Example 12-1], the EC50 came to 25 nM.

For the compound `O=C(O)c1cc(F)c2nc(N3C4CC[C@H]3C[C@H](OCc3c(-c5c(F)cccc5F)noc3C3CC3)C4)sc2c1` [Example 6-7B], the EC50 came out at 0.58 nM.

As for `COc1cc(C(=O)O)cc2sc(N3C4CC[C@H]3CC(OCc3c(-c5ccccc5C(F)(F)F)noc3C3CC3)C4)nc12` (stereo partly drawn) [Example 2-2B], the concentration for a half-maximal effect (EC50) worked out at 3 nM.

Usually EC50 stands for the concentration that produces a half-maximal response.
